The values that follow come from ChEMBL document CHEMBL5385856, “Novel 1,4,5,6-tetrahydrocyclopenta[d]imidazole-5-carboxamide-based JNK3 inhibitors: Design, synthesis, molecular docking, and therapeutic potential in neurodegenerative diseases” (Eur J Med Chem, 2023).

Experiment [1] is described as follows: Selectivity ratio of IC50 for inhibition of p38alpha (unknown origin) to IC50 for inhibition of JNK3 (unknown origin).
Experiment [2] addresses T1, Mitogen-activated protein kinase 9 (Homo sapiens, UniProt P45984). In words: Inhibition of JNK2 (unknown origin) at 1 uM relative to control.
Target sequence in this assay (P45984 whole entry, looked up): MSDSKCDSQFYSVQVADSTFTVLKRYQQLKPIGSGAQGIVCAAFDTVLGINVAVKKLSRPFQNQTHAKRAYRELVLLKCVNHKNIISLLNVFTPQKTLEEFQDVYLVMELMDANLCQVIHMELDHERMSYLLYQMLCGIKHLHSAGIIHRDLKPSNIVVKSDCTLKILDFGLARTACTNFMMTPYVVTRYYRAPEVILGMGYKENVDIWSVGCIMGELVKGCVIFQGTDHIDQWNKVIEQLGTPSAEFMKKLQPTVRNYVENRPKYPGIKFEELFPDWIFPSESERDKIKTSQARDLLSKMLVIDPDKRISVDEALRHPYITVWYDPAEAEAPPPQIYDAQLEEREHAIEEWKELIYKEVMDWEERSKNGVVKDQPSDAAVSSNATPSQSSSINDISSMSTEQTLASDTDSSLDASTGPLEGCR
The nature of experiment [3]: Selectivity ratio of IC50 for inhibition of JNK1 (unknown origin) to IC50 for inhibition of JNK3 (unknown origin).
The target in experiment [4] is T2, Mitogen-activated protein kinase 10 (Homo sapiens, UniProt P53779). In words: Inhibition of JNK3 (unknown origin) using ATF2 as substrate incubated for 40 mins in presence of [gamma33P]ATP by scintillation counting analysis.
Experiment [5] deals with T3, Mitogen-activated protein kinase 14 (Homo sapiens, UniProt Q16539). In words: Inhibition of p38alpha (unknown origin) incubated for 20 mins in presence of 33P-ATP.
Experiment [6] is described as follows: Selectivity ratio of IC50 for inhibition of GSK3beta (unknown origin) to IC50 for inhibition of JNK3 (unknown origin).
Experiment [7] concerns the target T4, Mitogen-activated protein kinase 8 (Homo sapiens, UniProt P45983). In words: Inhibition of JNK1 (unknown origin) incubated for 20 mins in presence of 33P-ATP.
Experiment [8] concerns the target Glycogen synthase kinase-3 beta (Homo sapiens, UniProt P49841). In words: Inhibition of GSK3beta (unknown origin) incubated for 20 mins in presence of 33P-ATP.
The target of experiment [9] is T2, Mitogen-activated protein kinase 10. In words: Inhibition of JNK3 (unknown origin) at 1 uM relative to control.
For experiment [10], the target named is T4, Mitogen-activated protein kinase 8. In words: Inhibition of JNK1 (unknown origin) at 1 uM relative to control.
The target of experiment [11] is T3, Mitogen-activated protein kinase 14. In words: Inhibition of p38alpha (unknown origin) at 1 uM relative to control.
Experiment [12] concerns the target T1, Mitogen-activated protein kinase 9. In words: Inhibition of JNK2 (unknown origin) incubated for 20 mins in presence of 33P-ATP.
Target sequence in this assay (P45984 whole entry): as the sequence (P45984 whole entry, looked up) above
Experiment [13] has as its system Cortical neurone. In words: Neuroprotective activity against Abeta42-induced neuronal apoptosis in Sprague-Dawley rat primary cortical neuron cells assessed as cell viability at 20 uM preincubated for 90 mins followed by Abeta42 addition for 24 hrs and measured on day 5 by MTT assay (reference value: 52%). It is filed as functional. The settings on record: 120 h, time 5 day, read-out: Activity. A general note: Formazan colour is commonly taken as a measure of viable cells.

Experiment [14] has as its target Mitogen-activated protein kinase 10 (Rattus norvegicus) (UniProt P49187). In words: Inhibition of JNK3 in primary rat cortex neuron cells assessed as reduction in Abeta1-42 induced c-Jun phosphorylation by Western blotting analysis. It is filed as cell-based. Particulars: Primary cortical neuron. (Immunoblotting shows a protein as a band on a membrane.)
Experiment [15] relates to Cortical neurone. In words: cells. Particulars: Rattus norvegicus, 120 h, read-out: Activity.
Experiment [16] deals with Mitogen-activated protein kinase 10 (Rattus norvegicus) (UniProt P49187). In words: Inhibition of JNK3 in primary rat cortex neuron cells assessed as reduction in Abeta1-42 induced APP phosphorylation by Western blotting analysis. It is filed as cell-based. The settings on record: Primary cortical neuron.

Calls of active or inactive are those of the source. The calls are words filed in the database; no cut-off is given here.

Chain of Glycogen synthase kinase-3 beta (P49841 whole entry): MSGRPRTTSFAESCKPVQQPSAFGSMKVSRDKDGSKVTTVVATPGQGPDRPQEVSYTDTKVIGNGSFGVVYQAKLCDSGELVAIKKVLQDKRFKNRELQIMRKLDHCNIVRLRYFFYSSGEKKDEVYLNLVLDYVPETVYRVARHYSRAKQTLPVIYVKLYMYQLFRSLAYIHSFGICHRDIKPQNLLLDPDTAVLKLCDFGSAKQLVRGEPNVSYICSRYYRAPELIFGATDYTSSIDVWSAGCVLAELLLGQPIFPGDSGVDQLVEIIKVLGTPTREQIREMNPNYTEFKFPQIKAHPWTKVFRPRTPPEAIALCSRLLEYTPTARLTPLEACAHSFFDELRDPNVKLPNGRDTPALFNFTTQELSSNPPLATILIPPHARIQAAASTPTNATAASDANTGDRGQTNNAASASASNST
T3 sequence (Q16539 whole entry): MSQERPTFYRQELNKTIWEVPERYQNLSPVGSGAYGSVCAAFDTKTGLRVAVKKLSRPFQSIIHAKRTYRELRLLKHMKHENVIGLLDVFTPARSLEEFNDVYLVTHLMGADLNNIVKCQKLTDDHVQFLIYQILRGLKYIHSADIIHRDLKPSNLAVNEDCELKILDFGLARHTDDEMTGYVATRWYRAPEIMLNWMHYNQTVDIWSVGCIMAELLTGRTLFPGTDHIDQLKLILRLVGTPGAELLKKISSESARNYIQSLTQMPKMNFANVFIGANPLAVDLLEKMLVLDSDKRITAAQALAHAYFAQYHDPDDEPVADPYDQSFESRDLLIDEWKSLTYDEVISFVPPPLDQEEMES
Chain of Mitogen-activated protein kinase 10 (Rattus norvegicus) (P49187 whole entry): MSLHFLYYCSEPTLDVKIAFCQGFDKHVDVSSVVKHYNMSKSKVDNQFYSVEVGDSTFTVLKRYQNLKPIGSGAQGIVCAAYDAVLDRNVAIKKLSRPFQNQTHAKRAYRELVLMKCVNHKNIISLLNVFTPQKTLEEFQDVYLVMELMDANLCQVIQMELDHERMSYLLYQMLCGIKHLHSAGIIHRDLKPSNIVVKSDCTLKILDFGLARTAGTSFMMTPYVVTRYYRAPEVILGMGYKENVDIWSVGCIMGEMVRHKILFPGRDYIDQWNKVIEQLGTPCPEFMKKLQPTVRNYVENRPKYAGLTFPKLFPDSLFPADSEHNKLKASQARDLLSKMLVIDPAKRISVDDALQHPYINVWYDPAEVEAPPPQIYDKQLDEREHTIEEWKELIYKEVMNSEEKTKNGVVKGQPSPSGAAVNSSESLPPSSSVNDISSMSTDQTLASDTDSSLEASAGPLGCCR
T2 sequence (P53779 whole entry): as the sequence (P49187 whole entry) above, with H27Q, S32Y, V33I, V34A counted along it
T4 sequence (P45983 whole entry): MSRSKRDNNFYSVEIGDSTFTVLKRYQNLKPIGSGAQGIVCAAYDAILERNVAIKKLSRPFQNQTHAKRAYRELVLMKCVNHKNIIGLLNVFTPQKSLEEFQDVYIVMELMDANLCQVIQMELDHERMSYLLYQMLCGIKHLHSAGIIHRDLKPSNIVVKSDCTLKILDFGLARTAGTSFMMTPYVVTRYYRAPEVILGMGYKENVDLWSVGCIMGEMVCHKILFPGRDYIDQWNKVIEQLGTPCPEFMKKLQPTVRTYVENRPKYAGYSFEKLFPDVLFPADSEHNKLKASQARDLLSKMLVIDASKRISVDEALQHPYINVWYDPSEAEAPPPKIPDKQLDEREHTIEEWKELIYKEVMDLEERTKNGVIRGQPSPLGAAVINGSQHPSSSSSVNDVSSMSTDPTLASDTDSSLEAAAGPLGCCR

What is called inhibition is how much of the control response was suppressed. The IC50 is the concentration at which inhibition is half-maximal. Take `CNC(=O)C1Cc2nc(-c3ccc4ccccc4c3)n(-c3ccnc(N[C@H]4CCCN(C(=O)C5CC5)C4)n3)c2C1` (stereo partly drawn): the Ratio IC50 in experiment [1], in [3] and in [6] was above 100 each time. For the same compound, the inhibition in experiment [2] was found to be 80%; in [9] it was 100%; in experiment [10], 80%; in experiment [11] it was 80%. For the same compound, the IC50 in experiment [4] is 0.564 nM; in [5], 751 nM; in experiment [7], 14.4 nM; in experiment [8] it was 1800 nM; in experiment [12], 7.56 nM.

In the case of `Oc1ccc(/C=C/c2cc(O)cc(O)c2)cc1` [RESVERATROL], the viability at 20 µM with Cortical neurone [13] amounted to 84.2%.

Regarding `NC(=O)C1Cc2nc(-c3ccc(Cl)c(Cl)c3)n(-c3ccnc(N[C@H]4CCCN(C(=O)C5CC5)C4)n3)c2C1` (stereo partly drawn), the inhibition in experiment [2] was determined as 80%; in [9] it was 100%; in experiment [10], 80%; in experiment [11], 80%. Besides, the inhibition entry in experiment [14] and in [16] was “Active” each time. Moreover, the IC50 in [4] was 0.379 nM; in experiment [5], 216 nM; in [7], 82.7 nM; in [8], 3890 nM; in experiment [12], 29.4 nM. Further, the viability at 10 µM with Cortical neurone [15] came out at 62.9%.

With `CCOC(=O)C1Cc2nc(-c3ccc4ccccc4c3)n(-c3ccnc(N[C@H]4CCCN(C(=O)C5CC5)C4)n3)c2C1` (stereo partly drawn), the inhibition entry in [14] and in experiment [16] was “Active” throughout. In addition, the IC50 in experiment [4] amounted to 0.716 nM; in [5], 291 nM; in experiment [7] it was 32.5 nM; in experiment [8] it was 2250 nM; in experiment [12] it was 13 nM. Further, the viability at 10 µM in the experiment with Cortical neurone [15] was 55.7%.
